Counter-ions that a name gives are not always drawn.

Inhibition data for 15 compounds are collected here from patent US20090005363A1, “Organic Compounds” (priority 2005, published 2009).

This assay concerns the target mGluR5 (Homo sapiens, UniProt P41594). The assay is described as follows: inhibition of the glutamate induced elevation of intracellular Ca2+ concentration. Conditions: read-out: mGluR5 Activity inh. at 10 μM [%].

Sequence of mGluR5 (P41594 21-1180 isoform P41594-2 limits assumed): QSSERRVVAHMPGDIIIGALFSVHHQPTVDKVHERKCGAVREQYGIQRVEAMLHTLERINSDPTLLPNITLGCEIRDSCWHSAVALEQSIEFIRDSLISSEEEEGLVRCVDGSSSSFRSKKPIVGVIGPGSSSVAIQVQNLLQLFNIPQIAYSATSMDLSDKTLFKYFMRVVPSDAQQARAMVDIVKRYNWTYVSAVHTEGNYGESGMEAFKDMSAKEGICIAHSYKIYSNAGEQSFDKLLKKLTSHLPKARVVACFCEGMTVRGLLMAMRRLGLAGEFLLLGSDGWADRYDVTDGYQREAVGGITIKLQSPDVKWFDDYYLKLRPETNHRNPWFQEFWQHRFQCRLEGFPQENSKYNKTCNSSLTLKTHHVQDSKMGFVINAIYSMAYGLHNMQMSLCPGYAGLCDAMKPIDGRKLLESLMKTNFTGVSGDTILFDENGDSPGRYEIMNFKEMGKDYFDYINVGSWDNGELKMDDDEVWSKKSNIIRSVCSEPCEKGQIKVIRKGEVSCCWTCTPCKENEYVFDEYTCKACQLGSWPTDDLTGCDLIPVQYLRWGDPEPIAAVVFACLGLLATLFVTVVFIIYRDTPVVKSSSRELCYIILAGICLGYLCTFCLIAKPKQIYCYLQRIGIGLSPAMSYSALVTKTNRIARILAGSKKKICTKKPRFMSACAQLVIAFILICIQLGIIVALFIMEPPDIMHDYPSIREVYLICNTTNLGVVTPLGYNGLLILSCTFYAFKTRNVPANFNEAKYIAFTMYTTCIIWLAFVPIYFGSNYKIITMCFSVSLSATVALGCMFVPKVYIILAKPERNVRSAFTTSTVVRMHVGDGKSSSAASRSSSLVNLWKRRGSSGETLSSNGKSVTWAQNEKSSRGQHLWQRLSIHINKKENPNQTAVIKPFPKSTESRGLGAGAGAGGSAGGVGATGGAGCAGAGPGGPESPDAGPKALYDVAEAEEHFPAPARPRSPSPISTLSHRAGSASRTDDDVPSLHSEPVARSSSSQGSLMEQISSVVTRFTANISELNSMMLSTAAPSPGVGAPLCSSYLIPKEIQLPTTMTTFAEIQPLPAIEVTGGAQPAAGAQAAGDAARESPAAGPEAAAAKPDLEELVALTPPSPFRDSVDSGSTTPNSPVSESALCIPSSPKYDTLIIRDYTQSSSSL
Description: This can be determined in vitro for example at recombinant human metabotropic glutamate receptors, especially PLC-coupled subtypes thereof such as mGluR5, using different procedures like, for example, measurement of the inhibition of the agonist induced elevation of intracellular Ca^2+ concentration in accordance with L. P. Daggett et al., Neuropharm.

For `Cc1ccc(Nc2ncc(C(=O)N3CCCC3c3ccccn3)cc2Cl)cn1` (stereo not drawn) [Compound 4.73, [5-Chloro-6-(6-methyl-pyridin-3-ylamino)-pyridin-3-yl]-(2-pyridin-2-yl-pyrrolidin-1-yl)-methanone], the inhibition at 10 µM came out at 72%. In the case of `Cc1ncc(Nc2ncc(C(=O)N3CCCCC3)cc2Cl)cn1` [Compound 2.17, [5-Chloro-6-(2-methyl-pyrimidin-5-ylamino)-pyridin-3-yl]-piperidin-1-yl-methanone], the inhibition at 10 µM worked out at 97%. For the compound `CC1CCCCN1C(=O)c1ccc(Nc2ccc(Cl)cc2)nc1` (stereo not drawn) [Compound 1.9, [6-(4-Chloro-phenylamino)-pyridin-3-yl]-(2-methyl-piperidin-1-yl)-methanone hydrochloride], the inhibition at 10 µM is 97%. On to `Cc1ccc(Nc2ncc(C(=O)N3CCSC3)cc2Cl)cn1` [Compound 2.14, [5-Chloro-6-(6-methyl-pyridin-3-ylamino)-pyridin-3-yl]-thiazolidin-3-yl-methanone], for which the inhibition at 10 µM came out at 97%. As for `CCC1CCCN(C(=O)c2cnc(Nc3ccc(C)nc3)c(Cl)c2)C1CC` (stereo not drawn) [Compound 4.37, [5-Chloro-6-(6-methyl-pyridin-3-ylamino)-pyridin-3-yl]-(2,3-diethyl-piperidin-1-yl)-methanone], the figure is 94%; as for `CCCC1CCC(C)CN1C(=O)c1cnc(Nc2ccc(C)nc2)c(Cl)c1` (stereo not drawn) [Compound 4.52, [5-Chloro-6-(6-methyl-pyridin-3-ylamino)-pyridin-3-yl]-(5-methyl-2-propyl-piperidin-1-yl)-methanone], 96%. Consider `O=C(c1cnc(Nc2ccc(Cl)cc2)c(Cl)c1)N1CCSCC1` [Compound 2.5, [5-Chloro-6-(4-chloro-phenylamino)-pyridin-3-yl]-thiomorpholin-4-yl-methanone], for which the inhibition at 10 µM was found to be 97%.

For the compound `Cc1ccc(Nc2ncc(C(=O)N3CCCC3c3ccccc3)cc2Cl)cn1` (stereo not drawn) [Compound 4.72, [5-Chloro-6-(6-methyl-pyridin-3-ylamino)-pyridin-3-yl]-(2-phenyl-pyrrolidin-1-yl)-methanone], the inhibition at 10 µM came to 97%. As for `CC[C@@H]1CCCCN1C(=O)c1cnc(Nc2ccc(C)nc2)c(Cl)c1` [Compound 4.18, [5-Chloro-6-(6-methyl-pyridin-3-ylamino)-pyridin-3-yl]-((R)-2-ethyl-piperidin-1-yl)-methanone], the figure is 97%. As for `O=C(c1cnc(Nc2ccc(Cl)cc2)c(Cl)c1)N1CC2CCC1C2` (racemic) [Compound 2.4, rac-(2-Aza-bicyclo[2.2.1]hept-2-yl)-[5-chloro-6-(4-chloro-phenylamino)-pyridin-3-yl]-methanone], the figure is 100%; as for `CCC(CC)C1OCCCCN1C(=O)c1cnc(Nc2ccc(C)nc2)c(Cl)c1` (stereo not drawn) [Compound 4.67, [5-Chloro-6-(6-methyl-pyridin-3-ylamino)-pyridin-3-yl]-[2-(1-ethyl-propyl)-[1,3]oxazepan-3-yl]-methanone], 95%. In the case of `O=C(c1ccc(Nc2ccc(Cl)cc2)nc1)N1CCCC(CO)C1` (racemic) [Compound 4.6, rac-[6-(4-Chloro-phenylamino)-pyridin-3-yl]-(3-hydroxymethyl-piperidin-1-yl)-methanone], the inhibition at 10 µM stood at 86%. As for `O=C(c1cnc(Nc2ccc(Cl)cc2)nc1)N1CCCCCC1` [Compound 5.3, Azepan-1-yl-[2-(4-chloro-phenylamino)-pyrimidin-5-yl]-methanone], the figure is 87%; as for `COc1ccc(Nc2ncc(C(=O)N3CCCCC3)cc2Cl)cn1` [Compound 2.8, [5-Chloro-6-(6-methoxy-pyridin-3-ylamino)-pyridin-3-yl]-piperidin-1-yl-methanone], 96%.

As for `Cc1ccc(Nc2ccc(C(=O)N3C[C@@H](C)O[C@@H](C)C3)cn2)cc1` [Compound 1.20, (cis-2,6-Dimethyl-morpholin-4-yl)-(6-p-tolylamino-pyridin-3-yl)-methanone hydrochloride], the inhibition at 10 µM was determined as 95%.
